Measured values: article PMC4147597 (Toxins, 2014)
Read-outs that look alike come from different tables or passages of the source.

Assays:
mice = assay: acute in vivo toxicity in mice; design: species or system mouse
Protocol: (§1) Five mice (17–19 g) were injected intravenously with multiple […] doses of 0.5–2.5 mg/kg HNTX-I (in mammalian Ringer solution with 1% ethanol and 2.5% BSA). Five control mice were injected with an equal volume of the vehicle. The toxicity of HNTX-I was qualitatively assayed by intra-abdominal injection into adult male cockroaches (Periplaneta) with body weights of 0.8–1.2 g at doses of 50–250 μg/g using 10-μL solutions (in 0.85% (w/v) normal saline).

[1] = tested on: American cockroach (Periplaneta americana); assay: acute in vivo toxicity in American cockroach; conditions: intra-abdominal injection, 50–250 μg/g; adult male; 7 days
Protocol: as §1

para/tipE = conditions: Xenopus laevis oocytes; ref previous works; cited from earlier work
[2] = tested on: voltage-gated Ca^2+ channels; assay: voltage-gated Ca^2+ channels, summary of screening; format: cell-based, rat; conditions: 100 μM
BK channels = assay: BK channel current in HEK293T cells, whole-cell patch-clamp; format: cell-based; conditions: 100 μM, n = 5
[3] = tested on: voltage-gated L-type Ca^2+ channels; assay: L-type Ca^2+ channels from DRG, whole-cell patch-clamp; format: cell-based; conditions: 100 μM; rat DRG; n = 5
[4] = tested on: tetrodotoxin-resistant (TTX-R) Na^+ channels; conditions: cited from earlier work
[5] = tested on: voltage-gated T-type Ca^2+ channels; assay: T-type Ca^2+ channels from DRG, whole-cell patch-clamp; format: cell-based; conditions: 100 μM; rat DRG; n = 5
[6] = tested on: voltage-gated Na^+ channels; assay: voltage-gated Na^+ channels, summary of screening; format: cell-based, rat; conditions: 100 μM
neuronal TTX-S VGSCs = conditions: adult rat dorsal root ganglion neurons; ref previous works (ref 9); cited from earlier work
VGSCs = conditions: ref previous work; cited from earlier work
Excerpt: In general, hydrophobic and polar residue hot spots are important binding determinants in toxins and ion channel interactions. […] HNTX-I should therefore present a similar type of interacting surface as other toxins whose binding sites are at the outer membrane. In our previous work, we have shown that such a basic profile ...

hIK1 [7] = biological target: T1, hIK1 (Homo sapiens, UniProt O15554); format: cell-based; conditions: for enhancement of the amplitude of IK currents: 0.3 μM free Ca^2+ in pipette, voltage ramps
T1 construct: expressed in transfected cells; host or cells: HEK293T cells, transient transfection with Lipofectamine 2000

rNav1.2/β1 = conditions: Xenopus laevis oocytes; ref previous works; cited from earlier work
[8] = tested on: mouse phrenic nerve-diaphragm preparations; assay: phrenic nerve-diaphragm twitch-tension (phrenic nerve conduction block)
Protocol: The twitch-tension experiments were performed using mouse phrenic nerve-diaphragm preparations. Adult Kunming albino mice (18–22 g of either gender) were killed by cervical dislocation. After dissection, the preparations were placed in a Plexiglas chamber immersed in Tyrode’s solution or toxin solutions continuously bubbled with 95% O2, 5% CO2 and maintained at 30–32 °C. The electrical stimulation was applied indirectly to the phrenic nerve with a suction electrode at 0.2 Hz with pulses of 0.2 ms in duration and supramaximally. For direct stimulation, the muscle was stimulated at a frequency of 0.2 Hz (supramaximal, 2 ms, square wave). A mechanical-electric transducer made of a semiconductor strain gauge was used to transform the twitch responses into electric signals. […] The time from the application of HNTX-I to complete blocking of neuromuscular transmission was defined as blocking time, and the concentrations of HNTX-I we used were 1 μM, 10 μM and 100 μM.

hERG K^+ channel = conditions: 100 μM
[9] = tested on: VGSCs in cardiac or skeletal muscles; conditions: mammals; ref previous works; cited from earlier work
hIK1 [10] = biological target: T1, hIK1; conditions: hIK1 cell line; read-out: EC50 for hIK1 activation; cited from earlier work
Excerpt: The intermediate-conductance Ca^2+-activated K^+ (IK) channels belong to the gene family of calcium/calmodulin-regulated and voltage-independent K^+ channels (SK1/SK2/SK3 and IK) and contribute to cellular functions by producing membrane hyperpolarization, thus regulating intracellular Ca^2+ signaling. IK channels are gated solely by internal Ca^2+, with a unit conductance of 20–85 pS. Expression of hIK1 in HEK293T cells gives rise to inwardly rectifying K^+ currents, which are activated by submicromolar concentrations of intracellular Ca^2+ (EC50 = 0.3 μM). […] After the application of 80 μM HNTX-I, NS309 still activated the current about 1.5-fold (Figure 3A). […] After the initial equilibration period, HNTX-I was added at 80 μM to yield a higher current within ~3 min. Then, 100 nM NS309 was applied and reached the peak in under 1 min. Thus, the p ...

L-type Ca^2+ channels = conditions: read-out: IC50 for block of L-type Ca^2+ channels; cited from earlier work
Excerpt: (§2) There are a variety of valuable pharmacological tools available to study the contribution of specific IK channels to the mechanism of endothelium-dependent dilation in isolated vessels and to blood pressure control in vivo. IK channel modulators mainly comprise small organic compounds and venom-derived peptides. These different classes of chemicals modulate the channel by binding to either the external or the internal face of the ion-conducting pore. Among the different ion modulators, venom-derived peptides usually block their targets with high affinity, that is, with IC50 in the […] ...

[11] = tested on: cardiac hERG K^+ channels; conditions: micromolar concentrations; cited from earlier work
Excerpt: as §2

[12] = intravenous, 0.5–2.5 mg/kg, seven days

T1 sequence (O15554 whole entry): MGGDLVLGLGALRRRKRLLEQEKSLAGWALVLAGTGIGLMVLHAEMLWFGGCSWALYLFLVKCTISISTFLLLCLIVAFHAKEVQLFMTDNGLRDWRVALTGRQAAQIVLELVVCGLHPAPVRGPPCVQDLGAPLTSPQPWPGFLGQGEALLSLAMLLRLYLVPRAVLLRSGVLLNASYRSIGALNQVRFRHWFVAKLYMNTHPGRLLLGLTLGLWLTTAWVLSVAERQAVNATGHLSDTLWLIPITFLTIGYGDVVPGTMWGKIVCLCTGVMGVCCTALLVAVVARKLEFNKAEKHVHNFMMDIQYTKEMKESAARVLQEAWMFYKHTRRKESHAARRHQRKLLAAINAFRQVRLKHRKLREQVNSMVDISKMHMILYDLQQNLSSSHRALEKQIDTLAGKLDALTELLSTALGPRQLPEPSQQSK

Hainantoxin-I [HNTX-I]
clinical appearance (mice; intravenous, 0.5, 1.0, 1.5, 2.0 and 2.5 mg/kg, five mice per dose, seven-day study): appeared clinically normal
aggressive/defensive responses (mice; [12]): no aggressive/defensive responses were elicited
death (mice; [12]): did not cause death at any concentration
depilation of pelage (mice; [12]): not depilated
symptoms of poisoning [1]: did not produce symptoms of poisoning
block of para/tipE (para/tipE): selectively blocks
sensitivity of voltage-gated Ca^2+ channels [2]: insensitive
effect on BK channels (BK channels): no effect
effect on L-type Ca^2+ channels [3]: no effect
effect on TTX-R Na^+ channels [4]: no effect
effect on T-type Ca^2+ channels [5]: no effect
sensitivity of voltage-gated Na^+ channels [6]: insensitive
effect on neuronal TTX-S VGSCs (neuronal TTX-S VGSCs): no effect
inhibition of VGSCs in vertebrates and insects (VGSCs): inhibits VGSCs
enhancement of the amplitude of IK currents (hIK1 [7]; 40 μM HNTX-I, n = 5): 33.2% ± 0.5
reversibility / dose-dependency on hIK1 (hIK1 [7]; 80 μM HNTX-I): clearly demonstrated the dose-dependency, as well as reversible nature
time to yield higher current (hIK1 [7]; 80 μM HNTX-I, after initial equilibration, before NS309): ~ 3 min
enhancement of the amplitude of IK currents (hIK1 [7]; 80 μM HNTX-I, n = 5): 97% ± 0.7
Imax (hIK1 [7]; 80 μM HNTX-I, current shortly before application = 100%): 197%
Imax at higher concentration (hIK1 [7]; 200 μM HNTX-I, compared with 80 μM): did not change
time to reach higher current level (hIK1 [7]; after 40 μM HNTX-I applied, n = 5): ~ 3 min
return of current to baseline upon washing (hIK1 [7]; washing after 40 μM HNTX-I, n = 5): the current returned to baseline with approximately the same time characteristics
block of rNav1.2/β1 (rNav1.2/β1): selectively blocks
inhibition of nerve-evoked twitch tension ([8]; 1 μM, Tyrode's solution, 30–32 °C): did not inhibit the nerve-evoked twitch tension
influence on neuromuscular transmission ([8]; 100 μM or lower): did not influence the neuromuscular transmission
blockade of twitch responses ([8]; 10 and 100 μM, within 4 h, n = 5): no apparent blockades in the twitch responses
sensitivity of hERG K^+ channels (hERG K^+ channel): insensitive
effect on hERG K^+ channel (hERG K^+ channel; HEK293T cells, n = 5): no effect
effect on VGSCs in cardiac or skeletal muscles [9]: nor does it target VGSCs

O=C1Nc2c(ccc(Cl)c2Cl)C1=NO [NS309, 3-oxime-6,7-dichloro-1H-indole-2,3-dione, reference compound]
EC50 (hIK1 [10]): 0.03 µM
IC50 (L-type Ca^2+ channels): 10 µM
inhibition of cardiac hERG K^+ channels [11]: inhibits
activation of hIK1 channels in the presence of HNTX-I (hIK1 [7]; 100 nM NS309, 80 μM HNTX-I): activated hIK1 channels
activation of current after HNTX-I (fold) (hIK1 [7]; 100 nM NS309 after application of 80 μM HNTX-I): about 1.5 fold
influence of HNTX-I on potency and kinetics of NS309 (hIK1 [7]; 100 nM NS309 in the presence of 80 μM HNTX-I): not notably influenced by HNTX-I
time to peak of NS309 activation (hIK1 [7]; 100 nM NS309 in the presence of 80 μM HNTX-I, n = 5): under 1 min

CCn1c(=O)[nH]c2cc(Cl)c(Cl)cc21 [DC-EBIO, 5,6-dichloro-1-ethyl-1,3-dihydro-2H-benzimidazole-2-one]
IC50 (L-type Ca^2+ channels): 70 µM
